Experimental data as given in ChEMBL document CHEMBL1130121, “Chromeno[3,4-c]pyridin-5-ones: selective human dopamine D4 receptor antagonists as potential antipsychotic agents” (J Med Chem, 1997).

Experiments:
D(4) dopamine receptor = molecular target: T1, D(4) dopamine receptor (Homo sapiens, UniProt P21917); assay: biochemical
T1 sequence (P21917 whole entry): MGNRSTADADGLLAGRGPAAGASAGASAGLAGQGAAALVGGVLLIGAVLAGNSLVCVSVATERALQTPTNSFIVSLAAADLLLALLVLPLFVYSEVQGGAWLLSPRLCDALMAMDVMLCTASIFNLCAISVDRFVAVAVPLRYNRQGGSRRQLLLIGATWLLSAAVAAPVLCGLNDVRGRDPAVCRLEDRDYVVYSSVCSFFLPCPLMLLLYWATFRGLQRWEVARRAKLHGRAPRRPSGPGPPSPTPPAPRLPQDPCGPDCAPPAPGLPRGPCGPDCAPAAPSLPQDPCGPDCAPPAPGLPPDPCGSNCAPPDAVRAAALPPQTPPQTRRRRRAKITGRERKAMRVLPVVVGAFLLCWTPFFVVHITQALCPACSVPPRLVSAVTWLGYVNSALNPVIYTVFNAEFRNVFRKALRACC
Description: Ability to displace [3H]spiperone from cloned human Dopamine receptor D4 expressed in CHO K-1 cells in vitro

[1] = molecular target: T2, D(4) dopamine receptor (Homo sapiens) (UniProt P21917); assay: Inhibition of mitogenic [3H]thymidine uptake in CHO 10001 cells expressing Dopamine receptor D4; assay type: functional, cell-based
T2 sequence (whole entry): T1 sequence (P21917 whole entry)

D(3) dopamine receptor = D(3) dopamine receptor (Homo sapiens, UniProt P35462); assay: biochemical
D(3) dopamine receptor, sequence (P35462 whole entry): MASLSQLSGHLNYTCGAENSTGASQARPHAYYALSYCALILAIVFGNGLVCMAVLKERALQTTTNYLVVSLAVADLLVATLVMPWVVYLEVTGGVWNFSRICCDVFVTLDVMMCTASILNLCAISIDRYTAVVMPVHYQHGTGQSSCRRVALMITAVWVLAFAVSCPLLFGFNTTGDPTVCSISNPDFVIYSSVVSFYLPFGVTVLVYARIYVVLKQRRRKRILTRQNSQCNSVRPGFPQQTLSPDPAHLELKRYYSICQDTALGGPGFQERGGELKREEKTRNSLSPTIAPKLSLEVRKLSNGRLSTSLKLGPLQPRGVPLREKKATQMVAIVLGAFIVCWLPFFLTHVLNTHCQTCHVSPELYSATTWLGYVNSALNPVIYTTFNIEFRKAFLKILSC
Description: Ability to displace [3H]spiperone from human cloned Dopamine receptor D3 expressed in CHO K-1 cells in vitro.

[2] = molecular target: T3, Adrenergic receptor alpha-2 (Rattus norvegicus, UniProt P22086+P19328+P22909); assay: Binding affinity against rat brain Alpha-2 adrenergic receptor
T3 sequence (P22086 whole entry): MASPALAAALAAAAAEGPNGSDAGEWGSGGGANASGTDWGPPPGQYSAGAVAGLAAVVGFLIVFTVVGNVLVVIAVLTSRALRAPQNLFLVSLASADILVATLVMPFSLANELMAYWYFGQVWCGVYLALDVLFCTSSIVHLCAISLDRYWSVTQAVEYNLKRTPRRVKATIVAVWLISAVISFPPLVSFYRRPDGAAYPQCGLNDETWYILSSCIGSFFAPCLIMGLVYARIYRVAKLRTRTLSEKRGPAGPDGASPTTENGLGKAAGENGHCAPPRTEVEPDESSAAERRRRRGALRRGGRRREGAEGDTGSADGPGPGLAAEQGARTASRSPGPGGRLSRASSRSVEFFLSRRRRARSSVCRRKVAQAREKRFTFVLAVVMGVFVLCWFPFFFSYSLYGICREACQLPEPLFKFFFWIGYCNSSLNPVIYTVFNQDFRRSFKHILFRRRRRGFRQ
T3 sequence (P19328 whole entry): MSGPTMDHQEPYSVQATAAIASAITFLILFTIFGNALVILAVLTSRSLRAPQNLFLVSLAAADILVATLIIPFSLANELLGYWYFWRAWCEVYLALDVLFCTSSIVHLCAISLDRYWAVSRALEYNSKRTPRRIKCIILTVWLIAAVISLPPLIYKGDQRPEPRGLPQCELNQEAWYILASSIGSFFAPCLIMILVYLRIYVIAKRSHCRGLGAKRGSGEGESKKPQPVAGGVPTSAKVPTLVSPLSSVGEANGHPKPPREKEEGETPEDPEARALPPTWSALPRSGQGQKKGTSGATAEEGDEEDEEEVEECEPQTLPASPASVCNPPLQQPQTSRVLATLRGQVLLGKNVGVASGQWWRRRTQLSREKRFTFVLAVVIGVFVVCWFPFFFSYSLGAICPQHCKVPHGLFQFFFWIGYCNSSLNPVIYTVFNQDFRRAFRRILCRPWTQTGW
T3 sequence (P22909 whole entry): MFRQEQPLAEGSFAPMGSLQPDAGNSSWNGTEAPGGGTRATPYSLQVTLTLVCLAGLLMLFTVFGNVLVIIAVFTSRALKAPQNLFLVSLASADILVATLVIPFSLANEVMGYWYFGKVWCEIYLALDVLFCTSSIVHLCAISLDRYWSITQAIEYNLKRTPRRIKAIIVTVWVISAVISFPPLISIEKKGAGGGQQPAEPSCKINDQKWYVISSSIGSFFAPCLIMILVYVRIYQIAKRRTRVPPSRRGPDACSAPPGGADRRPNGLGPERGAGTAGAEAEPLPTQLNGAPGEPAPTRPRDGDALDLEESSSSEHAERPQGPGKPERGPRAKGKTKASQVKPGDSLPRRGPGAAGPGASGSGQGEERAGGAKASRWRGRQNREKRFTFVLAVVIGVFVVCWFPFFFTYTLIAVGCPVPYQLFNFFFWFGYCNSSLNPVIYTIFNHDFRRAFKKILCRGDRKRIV

[3] = molecular target: 5-hydroxytryptamine receptor 2A (Rattus norvegicus, UniProt P14842); assay: Binding affinity against rat brain 5-hydroxytryptamine 2A receptor
5-hydroxytryptamine receptor 2A, sequence (P14842 whole entry): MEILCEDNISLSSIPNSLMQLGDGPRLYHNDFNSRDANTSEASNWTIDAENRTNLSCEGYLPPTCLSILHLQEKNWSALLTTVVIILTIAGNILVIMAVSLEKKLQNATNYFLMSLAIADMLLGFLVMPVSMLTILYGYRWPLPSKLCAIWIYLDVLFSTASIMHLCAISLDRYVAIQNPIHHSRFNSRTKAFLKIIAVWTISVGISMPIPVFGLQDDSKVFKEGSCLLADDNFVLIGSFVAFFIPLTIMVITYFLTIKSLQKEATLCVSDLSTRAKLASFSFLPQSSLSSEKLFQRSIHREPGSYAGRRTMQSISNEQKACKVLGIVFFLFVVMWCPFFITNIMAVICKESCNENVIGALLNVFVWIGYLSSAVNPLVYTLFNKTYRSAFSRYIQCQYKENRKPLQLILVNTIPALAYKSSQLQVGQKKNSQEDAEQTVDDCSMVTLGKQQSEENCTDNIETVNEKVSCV

[4] = molecular target: T4, Adrenergic receptor alpha-1 (Rattus norvegicus, UniProt P15823+P23944+P43140); assay: Binding affinity against rat brain Alpha-1 adrenergic receptor
T4 sequence (P15823 whole entry): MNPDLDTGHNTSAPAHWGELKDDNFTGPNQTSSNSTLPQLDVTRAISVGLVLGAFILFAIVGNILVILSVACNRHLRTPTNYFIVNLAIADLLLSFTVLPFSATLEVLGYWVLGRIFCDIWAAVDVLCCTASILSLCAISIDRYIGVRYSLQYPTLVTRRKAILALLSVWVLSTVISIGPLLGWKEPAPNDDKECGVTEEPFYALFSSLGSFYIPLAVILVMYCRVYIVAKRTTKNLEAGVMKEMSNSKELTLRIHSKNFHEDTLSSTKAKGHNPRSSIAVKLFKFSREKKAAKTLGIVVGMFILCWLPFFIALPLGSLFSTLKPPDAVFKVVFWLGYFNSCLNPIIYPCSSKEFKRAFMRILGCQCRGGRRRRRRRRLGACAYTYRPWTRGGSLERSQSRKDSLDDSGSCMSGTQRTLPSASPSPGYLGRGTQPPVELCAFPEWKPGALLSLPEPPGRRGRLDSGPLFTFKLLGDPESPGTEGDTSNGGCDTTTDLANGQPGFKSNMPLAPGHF
T4 sequence (P23944 whole entry): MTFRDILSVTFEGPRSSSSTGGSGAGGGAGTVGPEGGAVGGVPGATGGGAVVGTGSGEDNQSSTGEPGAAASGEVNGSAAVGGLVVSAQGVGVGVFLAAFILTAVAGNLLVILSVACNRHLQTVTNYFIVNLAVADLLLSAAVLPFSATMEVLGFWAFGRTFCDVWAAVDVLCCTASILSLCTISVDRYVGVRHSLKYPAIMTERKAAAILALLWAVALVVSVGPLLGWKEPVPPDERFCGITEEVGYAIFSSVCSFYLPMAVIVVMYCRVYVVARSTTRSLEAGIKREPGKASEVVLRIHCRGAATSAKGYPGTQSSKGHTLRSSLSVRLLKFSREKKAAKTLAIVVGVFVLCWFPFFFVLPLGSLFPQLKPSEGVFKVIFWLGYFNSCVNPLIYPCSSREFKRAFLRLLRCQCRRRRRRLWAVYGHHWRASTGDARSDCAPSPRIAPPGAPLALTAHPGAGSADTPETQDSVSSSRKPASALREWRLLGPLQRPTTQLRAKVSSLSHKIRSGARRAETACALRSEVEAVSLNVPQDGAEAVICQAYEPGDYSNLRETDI
T4 sequence (P43140 whole entry): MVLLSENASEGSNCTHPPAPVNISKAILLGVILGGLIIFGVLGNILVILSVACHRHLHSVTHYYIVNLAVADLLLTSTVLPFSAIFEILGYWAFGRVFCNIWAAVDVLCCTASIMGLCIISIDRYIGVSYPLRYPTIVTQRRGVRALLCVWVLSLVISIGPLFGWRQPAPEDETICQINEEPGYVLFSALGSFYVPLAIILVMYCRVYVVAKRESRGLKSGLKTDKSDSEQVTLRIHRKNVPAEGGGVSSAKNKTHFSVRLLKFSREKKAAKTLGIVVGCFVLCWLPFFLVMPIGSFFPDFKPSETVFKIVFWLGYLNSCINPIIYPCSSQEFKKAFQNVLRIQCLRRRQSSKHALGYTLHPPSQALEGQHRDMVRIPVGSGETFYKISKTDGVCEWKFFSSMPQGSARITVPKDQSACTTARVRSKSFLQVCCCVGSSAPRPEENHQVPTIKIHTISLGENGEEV

[5] = molecular target: T5, 5-hydroxytryptamine receptor 1A (Rattus norvegicus, UniProt P19327); assay: Binding affinity against rat brain 5-hydroxytryptamine 1A receptor
T5 sequence (P19327 whole entry): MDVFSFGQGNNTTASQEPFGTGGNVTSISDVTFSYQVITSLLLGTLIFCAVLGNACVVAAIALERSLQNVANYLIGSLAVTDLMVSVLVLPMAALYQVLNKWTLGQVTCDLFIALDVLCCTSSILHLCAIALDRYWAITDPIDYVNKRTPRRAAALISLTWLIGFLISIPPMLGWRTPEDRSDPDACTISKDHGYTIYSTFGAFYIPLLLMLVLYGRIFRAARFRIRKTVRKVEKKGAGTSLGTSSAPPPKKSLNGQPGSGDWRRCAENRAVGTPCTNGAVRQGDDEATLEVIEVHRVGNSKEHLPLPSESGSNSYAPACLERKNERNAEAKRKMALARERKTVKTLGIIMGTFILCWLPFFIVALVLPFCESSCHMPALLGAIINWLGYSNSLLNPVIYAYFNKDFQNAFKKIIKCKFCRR

Ki (D(4) dopamine receptor)	Intrinsic activity [1]	Ki (D(3) dopamine receptor)	Compound	further results
7.9 nM	–	–	COc1ccc2c3c(c(=O)oc2c1)CN(CCc1ccccc1)CC3	–
420 nM	–	–	COc1ccc2c3c(c(=O)oc2c1)CN(C(=O)c1ccccc1)CC3	–
> 3300 nM	–	–	COc1ccc2c3c(c(=O)oc2c1)CCN(Cc1ccccc1)C3	–
7.5 nM	0%	2210 nM	Cc1ccc2c3c(c(=O)oc2c1)CN(Cc1ccc(F)cc1)CC3	–
2.4 nM	23.2%	317 nM	O=c1oc2cc(O)ccc2c2c1CN(Cc1ccc(Cl)cc1)CC2	–
–	10%	–	COc1ccc2c3c(c(=O)oc2c1)CN(Cc1ccc(C)cc1)CC3	–
> 3300 nM	–	–	COc1ccc2c3c(c(=O)oc2c1)CN(c1ccccc1)CC3	–
–	21.2%	> 3000 nM	COc1cc2oc(=O)c3c(c2cc1OC)CCN(Cc1ccc(Cl)cc1)C3	–
8.7 nM	26.8%	2780 nM	COc1ccc2c3c(c(=O)oc2c1)CN(Cc1ccc(Cl)cc1)CC3	–
11 nM	–	–	Cc1ccc2c3c(c(=O)oc2c1)CN(Cc1ccc(Cl)cc1)CC3	–
–	12.4%	–	Cc1ccc2c3c(c(=O)oc2c1)CN(Cc1ccccc1)CC3	Ki [2]: > 700 nM; Ki [3]: > 700 nM; Ki [4]: > 700 nM; Ki [5]: > 700 nM
–	0%	–	COc1ccc2c3c(c(=O)oc2c1)CN(Cc1ccc(C(F)(F)F)cc1)CC3	–
17 nM	30.7%	–	COc1ccc2c3c(c(=O)oc2c1)CN(Cc1cccc(Cl)c1)CC3	–
4.3 nM	35.2%	548 nM	COc1ccc2c3c(c(=O)oc2c1)CN(Cc1ccc(F)cc1)CC3	–
16 nM	–	1300 nM	COc1ccc2c3c(c(=O)oc2c1OC)CN(Cc1ccccc1)CC3	–
–	23.2%	–	COc1ccc2c3c(c(=O)oc2c1)CN(Cc1ccccc1)CC3	–
–	25.2%	> 3000 nM	COc1ccc2c3c(c(=O)oc2c1)CN(Cc1ccc([N+](=O)[O-])cc1)CC3	–

Compound	Ki (D(4) dopamine receptor)	Intrinsic activity [1]	Ki (D(3) dopamine receptor)	further results
Cc1cc(O)c2c3c(c(=O)oc2c1)CN(Cc1ccccc1)CC3	145 nM	–	–	–
